Experimental findings from patent US9617251B2, “Indanylaminopyridylcyclopropanecarboxylic acids, pharmaceutical compositions and uses thereof” (BOEHRINGER INGELHEIM INTERNATIONAL GMBH, priority 2015, dated 2017) are described below.

Data set [1] concerns the target T1, cytochrome P450 2C9-isoenzyme (Homo sapiens, UniProt P11712).
T1 construct: from tissue; host or cells: human liver microsomes
Briefly: Inhibition of CYP-2C9 (hydroxylation of diclofenac, human liver microsomes). Type of data set: in vitro ADME. The settings on record: CYP-2C9, human liver microsomes, diclofenac 10 μM, 37° C. As to the method:
The inhibition of cytochrome P450 2C9-isoenzyme catalyzed hydroxylation of diclofenac by the test compound is assayed at 37° C. with human liver microsomes. All assays are carried out on a robotic system in 96 well plates. The final incubation volume contains TRIS buffer (0.1 M), MgCl2 (5 mM), human liver microsomes (0.1 mg/mL), diclofenac (10 μM) and the test compound at five different concentrations or no compound (high control) in duplicate (e.g., highest concentration 10-50 μM with subsequent serial 1:4 dilutions). Following a short preincubation period, reactions are started with the cofactor (NADPH, 1 mM) and stopped by cooling the incubation down to 8° C. and subsequently by addition of one volume of acetonitrile. An internal standard solution—the stable isotope ^13C6-hydroxydiclofenac—is added after quenching of incubations. Peak area analyte (=metabolite formed) and internal standard is determined by LC-MS/MS. The resulting peak area ratio analyte to internal standard in these incubations is compared to a control activity containing no test compound. Within each of the assay runs, the IC50 of a positive control inhibitor (sulfaphenazole) is determined. Experimental IC50 values are calculated by least square regression according to the following equation: % control activity=(100% control activity/(1+(I/IC50)S))−B with I=inhibitor concentration; S=slope factor; B=background activity (lower plateau of the inhibition curve)
(§1) If the inhibition of the reaction is already >50% at the lowest concentration of the test compound, the IC50 is assigned “<lowest concentration tested” (usually <0.4 μM). If the inhibition of the reaction is still <50% at the highest concentration of the test compound, the IC50 is assigned “>highest concentration tested” (usually >50 μM).

Data set [2] can be described thus: Aqueous solubility in buffer vs acetonitrile/water (1/1), LC-UV. Particulars: kinetic from dmso stock, buffer pH 2.2, 24 h shaking, 2.5% DMSO. The format is physicochemical. As to the method:
The aqueous solubility of the compounds of the invention is determined by comparing the amount dissolved in buffer to the amount in an acetonitrile/water (1/1) solution. Starting from a 10 mM DMSO stock solution aliquots are diluted with acetonitrile/water (1/1) or buffer, respectively. After 24 h of shaking, the solutions are filtrated and analyzed by LC-UV. The amount dissolved in buffer is compared to the amount in the acetonitrile solution.
Solubility is usually being measured from 0.001 to 0.125 mg/mL at a DMSO concentration of 2.5%. If more than 90% of the compound is dissolved in buffer, the value is marked with “>”.

For another data set, the target named is human GPR40 receptor (Homo sapiens, UniProt O14842). Description: IP1 accumulation measurements using the IPOne assay system (1321N1 cells stably expressing human GPR40 receptor). The format is cell-based. The settings on record: 1321N1 cells expressing human GPR40, 1 h stimulation at 37° C. The method, then: IP1 accumulation measurements using the IPOne assay system—1321N1 cells stably expressing human GPR40 receptor (Euroscreen, Belgium) are seeded 24 h before the assay in white 384-well plates in culture medium containing 10% FCS, 1% Na-Pyruvate and 400 μg/mL G418. IP1 is assayed according to the manufacturer's description (Cisbio Bioassays, France). In brief, the assay is started by substitution of the culture medium by stimulation buffer (Hepes 10 mM, CaCl2 1 mM, MgCl2 0.5 mM, KCl 4.2 mM, NaCl 146 mM, glucose 5.5 mM and LiCl 50 mM, pH 7.4). Cells are stimulated for 1 h at 37° C., 5% CO2 by addition of the compounds that are diluted in stimulation buffer containing LiCl. Assays are stopped by adding HTRF-conjugates (IP1-d2 and Anti-IP1 cryptate Tb) and lysis buffer, provided by the manufacturer. After an incubation time of 1 h at room temperature plates are measured using an EnVision™, Perkin Elmer. The obtained fluorescence ratios at 665/615 […] are then used to calculate the pEC50 values using Assay Explorer 3.3 Software (Accelrys, Inc.) by interpolation using an IP1 reference curve and subsequent sigmoidal curve fitting allowing for a variable hill slope.
Chain of human GPR40 receptor (O14842 whole entry): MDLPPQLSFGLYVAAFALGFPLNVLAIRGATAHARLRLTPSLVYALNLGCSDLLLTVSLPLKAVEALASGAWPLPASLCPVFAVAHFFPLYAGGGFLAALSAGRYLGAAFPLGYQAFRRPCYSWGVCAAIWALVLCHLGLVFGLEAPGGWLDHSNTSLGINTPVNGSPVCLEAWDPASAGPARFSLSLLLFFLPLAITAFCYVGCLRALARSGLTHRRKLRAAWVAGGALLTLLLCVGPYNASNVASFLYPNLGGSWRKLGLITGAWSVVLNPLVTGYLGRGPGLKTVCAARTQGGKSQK

For data set [3], the target named is T2, cytochrome P450 2C8-isoenzyme (Homo sapiens, UniProt P10632).
T2 construct: from tissue; host or cells: human liver microsomes
T2 sequence (P10632 1-490): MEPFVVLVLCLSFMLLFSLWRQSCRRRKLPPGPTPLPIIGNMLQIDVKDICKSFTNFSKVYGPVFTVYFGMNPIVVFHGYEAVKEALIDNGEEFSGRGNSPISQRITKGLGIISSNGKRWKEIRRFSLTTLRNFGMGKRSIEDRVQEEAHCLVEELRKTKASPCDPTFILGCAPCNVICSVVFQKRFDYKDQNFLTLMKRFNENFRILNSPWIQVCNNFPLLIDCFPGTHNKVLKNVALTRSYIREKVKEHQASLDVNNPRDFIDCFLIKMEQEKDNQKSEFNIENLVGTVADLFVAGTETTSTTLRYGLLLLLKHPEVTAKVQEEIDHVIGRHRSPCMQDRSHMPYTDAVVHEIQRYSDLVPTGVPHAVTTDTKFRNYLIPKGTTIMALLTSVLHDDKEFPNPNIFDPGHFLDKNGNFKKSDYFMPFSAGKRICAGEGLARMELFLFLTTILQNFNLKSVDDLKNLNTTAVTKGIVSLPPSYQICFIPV
Description: Inhibition of CYP-2C8 (deethylation of amodiaquine, human liver microsomes). The settings on record: CYP-2C8, human liver microsomes, amodiaquine 1 μM, 37° C. Type of data set: in vitro ADME. As to the method:
The inhibition of cytochrome P450 2C8-isoenzyme catalyzed deethylation of amodiaquine by the test compound is assayed at 37° C. with human liver microsomes. All assays are carried out on a robotic system in 96 well plates. The final incubation volume contains TRIS buffer (0.1 M), MgCl2 (5 mM), human liver microsomes (0.05 mg/mL), amodiaquine (1 μM) and the test compound at five different concentrations or no compound (high control) in duplicate (e.g. highest concentration 10-50 μM with subsequent serial 1:4 dilutions). Following a short preincubation period, reactions are started with the cofactor (NADPH, 1 mM) and stopped by cooling the incubation down to 8° C. and subsequently by addition of one volume of acetonitrile. An internal standard solution—the stable isotope d5-desethylamodiaquine—is added after quenching of incubations. Peak area analyte (=metabolite formed) and internal standard is determined by LC-MS/MS. The resulting peak area ratio analyte to internal standard in these incubations is compared to a control activity containing no test compound. Within each of the assay runs, the IC50 of a positive control inhibitor (Montelukast) is determined. Experimental IC50 values are calculated by least square regression according to the following equation: % control activity=(100% control activity/(1+(I/IC50)S))−B with I=inhibitor concentration; S=slope factor; B=background activity (lower plateau of the inhibition curve)
as §1
(In general: Microsomes from liver hold many membrane-bound enzymes, among them those of drug oxidation.)

In brackets after ≈: the same amount, converted by molar mass.

By IC50 is commonly meant the concentration that gives 50% inhibition. Read a low IC50 as higher potency. What is called solubility is the dissolved amount per volume that the medium holds. Low readings indicate a poorly soluble substance, high ones a readily soluble substance. One may read the EC50 as the concentration giving half of the maximal effect. Low values mean a more potent agent, high ones a less potent agent.

T1 sequence (P11712 whole entry): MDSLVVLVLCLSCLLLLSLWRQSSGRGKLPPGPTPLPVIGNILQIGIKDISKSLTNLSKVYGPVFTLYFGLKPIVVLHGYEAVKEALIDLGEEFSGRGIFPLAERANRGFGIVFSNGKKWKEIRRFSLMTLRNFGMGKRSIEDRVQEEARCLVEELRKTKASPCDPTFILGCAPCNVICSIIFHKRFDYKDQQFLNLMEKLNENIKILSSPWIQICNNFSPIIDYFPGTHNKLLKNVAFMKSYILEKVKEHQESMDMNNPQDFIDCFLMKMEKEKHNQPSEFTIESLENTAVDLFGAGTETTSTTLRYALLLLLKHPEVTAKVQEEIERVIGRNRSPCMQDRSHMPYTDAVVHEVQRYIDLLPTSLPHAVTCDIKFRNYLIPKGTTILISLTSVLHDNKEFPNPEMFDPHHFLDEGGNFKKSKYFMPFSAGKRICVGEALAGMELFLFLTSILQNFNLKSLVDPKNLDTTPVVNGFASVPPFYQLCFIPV

`Cc1cc(O[C@H]2CCOC2)cc(C)c1-c1ccc(F)c2c1CC[C@H]2Nc1ccc([C@H]2C[C@@H]2C(=O)O)cn1` [Example 13]: the figures for the half-maximal inhibitory concentration (IC50) in data set [1] and in data set [3] were above 50 µM and 49 µM, respectively. Also, the concentration in solution in data set [2] (solubility at 24 h) was 115 µg/mL (≈ 229 µM). Further, on human GPR40 receptor, the EC50 stood at 0.027 µM.
The like results for `Cc1cc(-c2nnn(CC(C)(C)O)n2)cc(C)c1-c1ccc(F)c2c1CC[C@H]2Nc1ccc([C@H]2C[C@@H]2C(=O)O)cn1` [Example 14] were, in that order, above 50 µM, 45 µM, 83 µg/mL (≈ 149 µM) and 0.004 µM.
The like results for `Cc1cc(OCC2CCOC2)cc(C)c1-c1ccc(F)c2c1CC[C@H]2Nc1ccc([C@H]2C[C@@H]2C(=O)O)cn1` (some centres unmarked) [Example 16] were, in that order, above 50 µM, 46 µM, 110 µg/mL (≈ 213 µM) and 0.011 µM.
On the same counts, the results for `Cc1cccc(C)c1-c1ccc(F)c2c1CC[C@H]2Nc1ccc([C@H]2C[C@@H]2C(=O)O)cn1` [Example 17] are 36 µM, 34 µM, 65 µg/mL (≈ 156 µM) and 0.013 µM.
As for `Cc1cc(-c2nnnn2CC(C)(C)O)cc(C)c1-c1ccc(F)c2c1CC[C@H]2Nc1ccc([C@H]2C[C@@H]2C(=O)O)cn1` [Example 24], the IC50 in data set [1] and in data set [3] was above 50 µM in each case. In data set [2], this compound yielded a solubility at 24 h of 103 µg/mL (≈ 185 µM). At human GPR40 receptor, this compound gave an EC50 of 0.318 µM.
On to `Cc1cc(-c2nnn[nH]2)cc(C)c1-c1ccc(F)c2c1CC[C@H]2Nc1ccc([C@H]2C[C@@H]2C(=O)O)cn1` [Example 25], for which the IC50 in data set [1] is above 50 µM; in data set [3], 4 µM. For the same compound, the solubility at 24 h in data set [2] is 67 µg/mL (≈ 138 µM). This compound returned an EC50 at human GPR40 receptor of 0.177 µM.
Turning to `Cc1cc(CO)cc(C)c1-c1ccc(F)c2c1CC[C@H]2Nc1ccc([C@H]2C[C@@H]2C(=O)O)cn1` [Example 28], the IC50 in data set [1] and in data set [3] was above 50 µM in each case. For the same compound, in data set [2], the solubility at 24 h is 87 µg/mL (≈ 195 µM). The compound further came in with a concentration for a half-maximal effect (EC50) on human GPR40 receptor of 0.071 µM.
As to `Cc1cc(OCC(C)(C)O)cc(C)c1-c1ccc(F)c2c1CC[C@H]2Nc1ccc([C@H]2C[C@@H]2C(=O)O)cn1` [Example 29], the IC50 in data set [1] and in data set [3] was above 50 µM throughout. Further, the concentration in solution in data set [2] (solubility at 24 h) was 111 µg/mL (≈ 220 µM). A half-maximal effect on human GPR40 receptor (EC50) was put at 0.017 µM.
On to `Cc1cc(OCc2ccccc2)cc(C)c1-c1ccc(F)c2c1CC[C@H]2Nc1ccc([C@H]2C[C@@H]2C(=O)O)cn1` [Example 32], for which the IC50 is 24 µM in data set [1] and 12 µM in data set [3]. Also, the solubility at 24 h in data set [2] was below 1 µg/mL. At human GPR40 receptor, this compound gave an EC50 of 0.035 µM.
On the same counts, the results for `Cc1cc(OCC2(C)COC2)cc(C)c1-c1ccc(F)c2c1CC[C@H]2Nc1ccc([C@H]2C[C@@H]2C(=O)O)cn1` [Example 33] are above 50 µM, 26 µM, 103 µg/mL (≈ 199 µM) and 0.014 µM.
On the same counts, the results for `Cc1cc(OCC(=O)O)cc(C)c1-c1ccc(F)c2c1CC[C@H]2Nc1ccc([C@H]2C[C@@H]2C(=O)O)cn1` [Example 34] are above 50 µM, above 50 µM, 73 µg/mL (≈ 149 µM) and 4.13 µM.
`Cc1cc(-c2ccc(=O)n(C)c2)cc(C)c1-c1ccc(F)c2c1CC[C@H]2Nc1ccc([C@H]2C[C@@H]2C(=O)O)cn1` [Example 37]: the IC50 is above 50 µM in data set [1] and 17 µM in data set [3]. In data set [2], this compound came in with a solubility at 24 h of 113 µg/mL (≈ 216 µM). The same compound displayed an EC50 at human GPR40 receptor of 0.011 µM.
As for `N#Cc1cccc(C#N)c1-c1ccc(F)c2c1CC[C@H]2Nc1ccc([C@H]2C[C@@H]2C(=O)O)cn1` [Example 44], the IC50 in data set [1] and in data set [3] was above 50 µM each time. This compound yielded a solubility at 24 h in data set [2] above 158 µg/mL. This compound came in with an EC50 on human GPR40 receptor of 4.13 µM.
Regarding `Cc1cc(-c2cc(=O)n(C)cn2)cc(C)c1-c1ccc(F)c2c1CC[C@H]2Nc1ccc([C@H]2C[C@@H]2C(=O)O)cn1` [Example 45], the results for the IC50 in data set [1] and in data set [3] were above 50 µM and 24 µM, respectively. In data set [2], the concentration in solution (solubility at 24 h) was 86 µg/mL (≈ 164 µM). For the same compound, the EC50 at human GPR40 receptor is 0.005 µM.
The like results for `COc1cc(OC)c(-c2ccc(F)c3c2CC[C@H]3Nc2ccc([C@H]3C[C@@H]3C(=O)O)cn2)c(OC)c1` [Example 48] were, in that order, above 50 µM, above 50 µM, above 107 µg/mL and 0.427 µM.
The like results for `Cc1ccc(Cl)c(-c2ccc(F)c3c2CC[C@H]3Nc2ccc([C@H]3C[C@@H]3C(=O)O)cn2)c1Cl` [Example 51] were, in that order, 17 µM, 12 µM, 56 µg/mL (≈ 119 µM) and 0.007 µM.
For `COc1cc(OC)c(Cl)c(-c2ccc(F)c3c2CC[C@H]3Nc2ccc([C@H]3C[C@@H]3C(=O)O)cn2)c1Cl` [Example 53], the IC50 in data set [1] is 14 µM; in data set [3], 11 µM. In data set [2], the concentration in solution (solubility at 24 h) was 76 µg/mL (≈ 147 µM). At human GPR40 receptor, this compound displayed an EC50 of 0.013 µM.
The like results for `O=C(O)[C@H]1C[C@@H]1c1ccc(N[C@@H]2CCc3c(-c4c(F)cccc4F)ccc(F)c32)nc1` [Example 55] were, in that order, above 50 µM, above 50 µM, 73 µg/mL (≈ 172 µM) and 0.208 µM.
Consider `COc1cc(OC)c(F)c(-c2ccc(F)c3c2CC[C@H]3Nc2ccc([C@H]3C[C@@H]3C(=O)O)cn2)c1F` [Example 57], for which the figures for the IC50 in data set [1] and in data set [3] were 48 µM and 19 µM, respectively. Further, the solubility at 24 h in data set [2] stood at 99 µg/mL (≈ 204 µM). At human GPR40 receptor, this compound showed an EC50 of 0.107 µM.
On the same counts, the results for `O=C(O)[C@H]1C[C@@H]1c1ccc(N[C@@H]2CCc3c(-c4c(F)cc(OC5CC5)cc4F)ccc(F)c32)nc1` [Example 60] are 9 µM, 25 µM, 68 µg/mL (≈ 142 µM) and 0.061 µM.
